Data taken from patent publication US8652787B2, “Use of ERBB4 as a prognostic and therapeutic marker for melanoma” (The United States of America, as represented by the …, priority 2008, dated 2014).
Entries after “also recorded” stand apart in the source; their conditions may differ.

How the values were obtained:
ERBB4 (P-Y1162) = assay: Immunoprecipitation and western blot of ERBB4 autophosphorylation in lapatinib-treated melanoma cells; format: cell-based, human
Experimental: (§1) Cells were treated for 72 hours in the presence of increasing concentrations (0.01-30 μM) of lapatinib, and relative cell number was estimated by methylene blue protein staining and plotted as percent survival when compared to vehicle-treated control versus Log (lapatinib) nM (where 1 is 10 nM lapatinib). Fitted lines were generated using 4-parameter nonlinear regression via GraphPad Prism. […] The IC50 values for inhibition of cell growth by 72 hour treatment with lapatinib of a larger panel of lines harboring WT and mutant ERBB4 were analyzed using GraphPad Prism v.5 (n=3). (C) Immunoprecipitation and western blot analysis of ERBB4 autophosphorylation in cells treated with lapatinib. Cells were treated for 1 hour with lapatinib or vehicle alone as control. […] The activity of ERBB4, AKT and ERBB2 was determined by immunoblotting with phospho-specific antibodies. […] Lysates and immunoprecipitates were analyzed by western blotting using the indicated antibodies. […] (E) Quantitative assessment of data from 2 cell lines harboring WT ERBB4 and 3 cell lines harboring mutant ERBB4 that were performed similarly to (D). […] (G) Quantitation of FACS-sorted lapatinib-treated cells. The percent apoptotic cells were determined based on the sub-G1 population for vehicle-treated cells or lapatinib-treated cells.

ERK1 and ERK2 = assay: Western blot of ERK1/2 phosphorylation in lapatinib-treated melanoma cells; format: cell-based, human; conditions: 72 hours, 5 μM lapatinib; P-ERK1/ERK1, P-ERK2/ERK2
Experimental: FIG. 14: Effect of lapatinib in ERK1/2 signaling pathways. […] Cells were treated for 72 hours with 5 μM lapatinib or vehicle as control. The activity of ERK1 and ERK2 was determined by immunoblotting with phospho-specific antibodies. Total ERK protein was also determined by immunoblotting. Shown are representative blots. (B) Quantitative assessment of data from one melanoma cell line harboring mutant ERBB4. The ratio of band intensities of P-ERK1/ERK1 or P-ERK2/ERK2 was analyzed for each melanoma cell line.
Transfected cells were washed 3× in PBS and lysed using 0.5 ml 1% NP-40 lysis buffer (1% NP-40, 50 mM Tris-HCl pH 7.5, 150 mM NaCl, complete protease inhibitor tablet, EDTA-free (Roche, Indianapolis, Ind.), 1 μM sodium orthovanadate, 1 mM sodium fluoride, and 0.1% β-mercaptoethanol) per T-75 flask for 20 minutes on ice. Lysed cells were scraped and transferred into a 1.5 mL microcentrifuge tube. Extracts were centrifuged for 10 minutes at 14,000 rpm at 4° C. […]
Scanned films from western blot analysis of SDS-PAGE were analyzed using ImageJ (NIH software). Individual bands were quantitated and plots were generated to determine the intensities in each band. The data was then exported to Microsoft Excel and analyzed further for phospho:total ratios of protein.

AKT (P-S473) = assay: Western blot of AKT phosphorylation in lapatinib-treated melanoma cells; format: cell-based, human; conditions: 1 hour, 5 μM lapatinib
Experimental: as §1

ERBB2 (P-Y1248) = ERBB2 (P-Y1248) (Homo sapiens, UniProt P04626); assay: Immunoprecipitation and western blot of ERBB2 phosphorylation in lapatinib-treated melanoma cells; format: cell-based; conditions: 1 hour, 5 μM lapatinib
Sequence of ERBB2 (P-Y1248) (P04626 23-1255): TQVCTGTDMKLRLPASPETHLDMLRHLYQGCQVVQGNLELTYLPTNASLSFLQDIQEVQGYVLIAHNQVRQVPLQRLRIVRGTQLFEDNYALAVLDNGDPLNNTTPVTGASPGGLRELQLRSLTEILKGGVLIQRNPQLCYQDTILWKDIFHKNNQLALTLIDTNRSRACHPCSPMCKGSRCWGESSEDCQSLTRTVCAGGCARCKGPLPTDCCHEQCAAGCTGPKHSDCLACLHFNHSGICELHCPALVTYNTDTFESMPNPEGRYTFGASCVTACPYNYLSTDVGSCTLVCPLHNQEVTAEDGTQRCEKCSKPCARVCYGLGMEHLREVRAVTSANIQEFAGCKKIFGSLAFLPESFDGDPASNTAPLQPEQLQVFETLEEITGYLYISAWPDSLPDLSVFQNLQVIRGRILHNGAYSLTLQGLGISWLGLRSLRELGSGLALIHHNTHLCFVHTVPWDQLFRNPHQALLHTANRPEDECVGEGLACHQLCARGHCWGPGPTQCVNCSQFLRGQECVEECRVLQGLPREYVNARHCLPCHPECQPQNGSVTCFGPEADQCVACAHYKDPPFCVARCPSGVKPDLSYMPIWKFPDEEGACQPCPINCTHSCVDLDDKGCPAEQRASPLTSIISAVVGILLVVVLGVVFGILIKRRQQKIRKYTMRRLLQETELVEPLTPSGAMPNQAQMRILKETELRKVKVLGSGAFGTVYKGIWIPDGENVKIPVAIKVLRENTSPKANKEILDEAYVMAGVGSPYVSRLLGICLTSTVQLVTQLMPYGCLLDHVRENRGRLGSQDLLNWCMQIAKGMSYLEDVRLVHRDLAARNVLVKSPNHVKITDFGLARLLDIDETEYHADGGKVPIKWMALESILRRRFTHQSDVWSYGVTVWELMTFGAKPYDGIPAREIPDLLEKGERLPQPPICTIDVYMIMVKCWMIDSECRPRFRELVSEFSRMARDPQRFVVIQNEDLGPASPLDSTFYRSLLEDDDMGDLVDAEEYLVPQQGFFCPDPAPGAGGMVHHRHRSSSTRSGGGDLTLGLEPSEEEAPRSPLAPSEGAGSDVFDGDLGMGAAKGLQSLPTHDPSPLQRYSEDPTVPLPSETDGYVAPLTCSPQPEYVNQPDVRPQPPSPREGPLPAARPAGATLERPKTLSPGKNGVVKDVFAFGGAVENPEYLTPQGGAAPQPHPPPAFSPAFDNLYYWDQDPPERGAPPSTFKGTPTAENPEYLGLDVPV
Experimental: as §1

[1] = tested on: melanoma cells harboring mutant ERBB4 or WT ERBB4; assay: Flow cytometry (PI staining) of the sub-G1 apoptotic population after lapatinib; format: cell-based, human; conditions: 72 hours, 5 μM lapatinib, FACS
Experimental: as §1

[2] = tested on: melanoma cell lines harboring mutant ERBB4; assay: Growth inhibition of melanoma cell lines by lapatinib (72 h, methylene blue staining / SYBR Green I); format: cell-based, human
Experimental: as §1

CS(=O)(=O)CCNCc1ccc(-c2ccc3ncnc(Nc4ccc(OCc5cccc(F)c5)c(Cl)c4)c3c2)o1 [lapatinib]
inhibition of ERBB4 activation in cells harboring mutant ERBB4 (ERBB4 (P-Y1162); 1 hour, 5 μM lapatinib, (P-Y1162)-ERBB4/ERBB4): specific inhibition of ERBB4 and AKT activation
inhibition of ERBB4 receptor autophosphorylation (ERBB4 (P-Y1162); cells treated for 1 hour with lapatinib, α-P-ERBB4 (Y1162)): inhibited receptor autophosphorylation in a dose-dependent manner
inhibition of ERK activation (ERK1 and ERK2): slightly inhibited; also recorded: increased lapatinib sensitivity with respect to ERK1 and ERK2 phosphorylation
inhibition of AKT activation in cells harboring mutant ERBB4 (AKT (P-S473)): specific inhibition of ERBB4 and AKT activation
inhibition of ERBB2 in melanoma cell lines (ERBB2 (P-Y1248)): No inhibition
apoptosis (sub-G1 population) of melanoma cells harboring mutant ERBB4 compared to WT ERBB4 lines [1]: increased sub-G1 population
apoptosis (sub-G1 population) of melanoma cells harboring mutant ERBB4 compared to WT ERBB4 lines ([1]; listed as Lapatinib): markedly increased apoptosis
reduction of cell proliferation / sensitivity to lapatinib, ERBB4 mutant versus WT ERBB4 melanoma cells ([2]; 72 hours, 0.01-30 μM lapatinib, compared with cells containing endogenous WT ERBB4): increased sensitivity to lapatinib compared to WT ERBB4 cell lines; also recorded: reduced cell proliferation to a greater extent in cells containing endogenous ERBB4 mutations
fold greater sensitivity to lapatinib (from IC50) of melanoma cells harboring ERBB4 mutations than cells with WT receptor ([2]; IC50 for inhibition of cell growth, 72 hour treatment, n=3): 10- to 250 fold
